Reference: patent publication US8962689B2, “Medium chain dicarboxylic acids, their derivates and metabolic disorders” (Nestec S.A., priority 2008, dated 2015)

How the values were obtained:
Assay type in all cases: in vivo, human
healthy subjects = assay: Cross-over single-blind pilot study, mixed formula meal with sebacic acid (C10), healthy subjects; conditions: for Glucose AUC / Insulin AUC / Total ISR (insulin secretion rate): 0-420 minutes, mean
Procedure: (§1) Ingestion of the different meals was performed at 100 min.
(§2) The acute effects of oral ingestion of sebacic acid on postprandial glycemia, hepatic gluconeogenesis and glycogenolysis were tested in T2D subjects and healthy volunteers during ingestion of a mixed meal at breakfast.
(§3) Type 2 diabetic patients and healthy subjects were matched for gender distribution, age, and body mass index as reported in the following table 1:
(§4) The subjects ingested the following formula meal
(§5) No C10 group (control group): 50% CHO, 15% protein and 35% lipids plus water
(§6) 10 g C10 group: 50% CHO, 15% protein and 35% lipids plus 10 g of C10 plus water

T2D subjects = assay: Cross-over single-blind pilot study, mixed formula meal with sebacic acid (C10), T2D subjects; conditions: for EGP (endogenous glucose production) / Gluconeogenesis / Glucose clearance / Total Ra (rate of appearance of deuterated glucose) / Glucose AUC / Insulin AUC / Total ISR (insulin secretion rate): type 2 diabetic subjects; for Glucose AUC / Insulin AUC / Total ISR (insulin secretion rate): 0-420 minutes, mean
Procedure: as §1, §2, §3, §4, §5, §6

[1] = Time course of plasma sebacate in healthy subjects
Procedure: FIG. 4 reports the time course of plasma sebacate in healthy subjects.
FIG. 4 reports the time course of plasma sebacate in healthy subjects. The peak was reached after 320 minutes from the beginning of the experiment, i.e. […] after the ingestion of the meal enriched with C10. C10 peaked later (delay of 40 minutes) after 23 g C10 ingestion.

[2] = Time course of plasma sebacate in T2D subjects
Procedure: FIG. 5 reports the time course of plasma sebacate in T2D subjects.
FIG. 5 reports the time course of plasma sebacate in T2D subjects. […] Another difference was that in diabetics the two curves (10 g vs. 23 g) were overlapped up to 320 minutes, and then the concentration of C10 declined slower in the 23 g C10 fed patients compared with 10 g of C10.

[3] = healthy subjects, 10 g C10 meal
[4] = healthy subjects, 23 g C10 meal
[5] = T2D subjects (n=10), 10 g meal, vs control meal
[6] = T2D subjects (n=10), 23 g C10 DA meal, vs control meal

- Delay of plasma C10 peak after 23 g C10 ingestion ([1]; 23 g C10 ingestion): 40 min
- Time of plasma sebacate peak after the ingestion of the meal ([1]; oral, meal enriched with C10): 200 min
- Time of plasma sebacate peak from the beginning of the experiment ([1]; oral, meal enriched with C10): 320 min
- Plasma C10 peak times compared with controls ([2]; T2D subjects): the peak times were maintained
- Plasma C10 concentration relative to values reached in controls ([2]; T2D subjects vs healthy controls): about 1.5 times
Compound: O=C(O)CCCCCCCCC(=O)O [C10, sebacic acid]
- Change in postprandial insulinemia AUC (healthy subjects; healthy subjects (n=10), 23 g sebacic acid, vs control meal): −38%
- EGP (endogenous glucose production) (healthy subjects; [3]): 6.30 ± 2.45 μmol · min^−1 · kgffm^−1
- Gluconeogenesis (healthy subjects; [3]): 31.28 ± 5.07%
- Glucose clearance (healthy subjects; [3]): 2.73 ± 0.24 mL/min/kg
- Total Ra (rate of appearance of deuterated glucose) (healthy subjects; [3]): 20.60 ± 2.88 μmol · min^−1 · kgffm^−1
- Glucose AUC (healthy subjects; [3]): 37400 mg·min/dL
- Insulin AUC (healthy subjects; [3]): 51100 pM·min
- Total ISR (insulin secretion rate) (healthy subjects; [3]): 101.15 nmol
- EGP (endogenous glucose production) (healthy subjects; [4]): 6.172 ± 0.68 μmol · min^−1 · kgffm^−1
- Gluconeogenesis (healthy subjects; [4]): 31.20 ± 3.63%
- Glucose clearance (healthy subjects; [4]): 2.74 ± 0.26 mL/min/kg
- Total Ra (rate of appearance of deuterated glucose) (healthy subjects; [4]): 21.20 ± 1.30 μmol · min^−1 · kgffm^−1
- Glucose AUC (healthy subjects; [4]): 38100 mg·min/dL
- Insulin AUC (healthy subjects; [4]): 39200 pM·min
- Total ISR (insulin secretion rate) (healthy subjects; [4]): 93.60 nmol
- Glucose clearance, result in words (healthy subjects; healthy subjects, C10 ingestion): significantly improved
- ISR, result in words (healthy subjects; healthy subjects, meal with lipids substituted with 23 g C10): significantly reduced
- Change in postprandial Endogenous Glucose Production (T2D subjects; [5]): −10%
- Change in postprandial Gluconeogenesis (%) (T2D subjects; [5]): −2.1%
- Change in postprandial glycemia area under the curve (AUC) (T2D subjects; [5]): −17%
- Increase in postprandial glucose clearance (T2D subjects; [5]): +12.6%
- Change in postprandial Endogenous Glucose Production (T2D subjects; [6]): −9%
- Change in postprandial Gluconeogenesis (%) (T2D subjects; [6]): −2.3%
- Change in postprandial glycemia area under the curve (AUC) (T2D subjects; [6]): −16%
- Change in postprandial insulin secretion rate (T2D subjects; [6]): −35%
- Increase in postprandial glucose clearance (T2D subjects; [6]): +8.2%
- Glucose clearance, result in words (T2D subjects; diabetic patients, C10 ingestion): significantly improved
- GNG, result in words (T2D subjects; diabetic patients, both C10 enriched meals): significantly reduced
- Glucose AUC, result in words (T2D subjects; diabetic patients, meal containing 10 g of C10): significantly lower
- ISR, result in words (T2D subjects; diabetic patients, meal with lipids substituted with 23 g C10): significantly reduced
- EGP (endogenous glucose production) (T2D subjects; 10 g C10 meal): 7.81 ± 3.27 μmol · min^−1 · kgffm^−1
- Gluconeogenesis (T2D subjects; 10 g C10 meal): 40.862 ± 3.62 %
- Glucose clearance (T2D subjects; 10 g C10 meal): 1.76 ± 0.13 mL/min/kg
- Total Ra (rate of appearance of deuterated glucose) (T2D subjects; 10 g C10 meal): 19.60 ± 2.41 μmol · min^−1 · kgffm^−1
- Glucose AUC (T2D subjects; 10 g C10 meal): 43700 mg·min/dL
- Insulin AUC (T2D subjects; 10 g C10 meal): 33500 pM·min
- Total ISR (insulin secretion rate) (T2D subjects; 10 g C10 meal): 213.69 nmol
- EGP (endogenous glucose production) (T2D subjects; 23 g C10 meal): 7.00 ± 2.47 μmol · min^−1 · kgffm^−1
- Gluconeogenesis (T2D subjects; 23 g C10 meal): 40.72 ± 4.00 %
- Glucose clearance (T2D subjects; 23 g C10 meal): 1.71 ± 0.21 mL/min/kg
- Total Ra (rate of appearance of deuterated glucose) (T2D subjects; 23 g C10 meal): 20.32 ± 2.19 μmol · min^−1 · kgffm^−1
- Glucose AUC (T2D subjects; 23 g C10 meal): 44200 mg·min/dL
- Insulin AUC (T2D subjects; 23 g C10 meal): 29500 pM·min
- Total ISR (insulin secretion rate) (T2D subjects; 23 g C10 meal): 142.27 nmol
- EGP, result in words (T2D subjects; type 2 diabetics, C10 enriched meals compared with the standard meal): significantly reduced
